In patent US20090155179A1, “KINETIC BIOMARKER FOR QUANTIFICATION OF LYMPHOPROLIFERATION, CLONAL EXPANSION, RECRUITMENT AND TRAFFICKING IN LYMPHOID TISSUES AND OF THE IN VIVO ACTIONS OF ANTIGENS AND MODULATING THEREON” (KINEMED, INC., priority 2005, published 2009):
Entries after “also recorded” stand apart in the source; their conditions may differ.

Assays:
[1] = system: PLN cells (draining popliteal lymph node lymphocytes); assay: kinetic PLNA (popliteal lymph node assay) with continuous 2H2O labeling after footpad immunization; assay type: in vivo, Balb/c mice; conditions: for PLN cellularity under drug treatment: 5 μg KLH or PBS, Rap 2 mg/kg/d p.o.
Protocol: PLNA and heavy water labeling. The kinetic PLNA was performed as follows, except as noted in the Figure legends. In all experiments, groups of n=4 or 5 Balb/c mice were immunized subcutaneously on day 0 in the left hind footpad (toe to heel direction) with 20 μl PBS or drug vehicle (negative control group), or with 20 μl PBS containing 5-25 μg KLH (positive control group). Heavy water labeling was initiated on day 0 by intraperitoneal administration of 99.9% ^2H2O containing 0.9% w/v NaCl at 35 ml/kg body weight, and animals were maintained on 8% ^2H2O in drinking water for the remainder of the study. At day 7 post immunization, animals were bled into heparinized tubes by cardiac puncture under isoflurane anesthesia and sacrificed by cervical dislocation. The blood was centrifuged at 1500×g for 10 minutes, and heparinized plasma was stored at −20° C. for determination of body water ^2H enrichment; a second aliquot was frozen for serologic studies. Bone marrow was harvested from the right hindlimb femur by flushing the bone with 1 ml PBS using a 25 ga cannula and centrifuging the tissue and cell suspension at 450×g for 5 min.
Analysis of PLN cells. Draining PLN were dissected from the left hind limb, mechanically dispersed, using tweezers, into ice-cold RPMI 1640 containing 10% fetal bovine serum and antibiotics. The cell suspensions were thoroughly mixed and strained through a 35 μm cell strainer fitted to a 12×75 mm polystyrene tube (BD Biosciences, San Jose, Calif.) and centrifuged at 450×g at 4° C. for 5 min. Cells were suspended in 100 μl staining buffer (PBS containing 0.5% w/v bovine serum albumin, 2 mM EDTA, and 0.05% sodium azide), blocked by addition of 20 μl mg/ml murine IgG (Sigma) and 2 μl anti-CD16/CD32 mAb (Miltenyi Biotec, City/State) at 4° C. for 15 min., and stained with anti-CD3-FITC and anti-B220-PE/Cy5 (eBioscience, 1 μl each) for 15 min. The samples were diluted to 900 μl with staining buffer, mixed thoroughly with 100 μl Flow-Count fluorospheres, and analyzed on an Epics XL flow cytometer (Beckman Coulter, City/State) for determination of absolute lymph node cell counts and percentages and absolute counts of T cells, B cells, and non-T/B cells. Absolute cell counts per lymph node were determined as:
Analysis of ^2H incorporation into purine dR. DNA was extracted from samples of bone marrow, total PLN cells, or sorted T and B cells using DNEasy kits (Qiagen, Valencia, Calif.) according to the manufacturer's instructions. Aliquots (0.5 μg) were hydrolyzed to […] by overnight incubation at 37° C. with 0.5 units nuclease SI (Sigma) and 0.25 units potato acid phosphatase (Calbiochem) in 75 mM sodium acetate buffer, pH 4.8, containing 0.15 mM ZnSO4. […] The hydroxyl groups were acetylated using acetic anhydride and N-methylimidazole, and the resultant pentafluorobenzyl […] derivative was extracted into dichloromethane, dried under vacuum, and redissolved in 100 μl ethyl acetate. The derivative was analyzed by gas chromatography/mass spectrometry (GC/MS) as described supra, with selected ion monitoring at m/z 435 (for the parent mass isotopomer, M0) and 436 (M1). After integration of the M0 and M1 peak area using ChemStation software, the excess mole fraction of the M1 mass isotopomer (EM1) was calculated as: […]
Calculations and statistics. Fractional turnover of PLN cell populations (f, the fraction of total, T, or B cells that have divided during the labeling period, representing clonal expansion, FIG. 1) was calculated as:
f=EM1observed/EM1maximal,
where EM1maximal was represented, in most experiments, by bone marrow DNA from the same animal, or assumed to equal 0.14. Alternatively, for mice labeled for less than four days, EM1maximal was represented by 0.9× the EMI value predicted from the animal's body water ^2H enrichment (the factor of 0.9 represents dilution by salvage).

[2] = system: PLN cells; assay: kinetic PLNA with 2H2O labeling after KLH immunization in C57BI/6 mice; assay type: in vivo, C57BI/6 (B6) mice; conditions: B6 mice
[3] = tolerability of maintained 2H2O body water enrichment; assay type: in vivo; conditions: 1-10% of total body water labeled, weeks or months, humans (>100 people) and experimental animals
Excerpt: Relatively high body water enrichments of ^2H2O (e.g., 1-10% of the total body water is labeled) may be achieved relatively inexpensively using the techniques of the invention. […] This finding in a large number of human subjects (>100 people) is contrary to previous concerns about vestibular toxicities at high doses of ^2H2O. One of the Applicants has discovered that as long as rapid changes in body water enrichment are prevented (e.g., by initial administration in small, divided doses), high body water enrichments of ^2H2O can be maintained with no toxicities. For example, the low expense of commercially available ^2H2O allows long-term maintenance of enrichments in the 1-5% range at relatively low expense.

[4] = system: xenografted human tumor cells; assay: f of xenografted human tumor cells in mice; assay type: in vivo; conditions: 10 mg/kg/d, i.p.; previously seen
[5] = day 7, Dex 0.3 mg/kg/d p.o., Tax 10 mg/kg/d i.p., OHU 500 mg/kg/d i.p.

NC(=O)NO [hydroxyurea]
PLN cellularity under drug treatment [1, 5]: modest and variable effects
f of total PLN cells after KLH stimulation ([1]; 5 μg KLH, daily drug to day 7: Rap 2 mg/kg/d p.o., OHU 500 mg/kg/d i.p.): strongly inhibited
f of total PLN cells at baseline ([1]; sham-immunized (PBS), daily drug to day 7: Rap 2 mg/kg/d p.o., OHU 500 mg/kg/d i.p.): strongly inhibited

O=[N+]([O-])c1ccc(Cl)c([N+](=O)[O-])c1 [DNCB, 2,4-dinitrochlorobenzene]
dose above which f reached a plateau ([1]; Balb/c, DNCB in PBS:DMSO, day 7): above 100 μg

keyhole limpet hemocyanin [KLH]
proliferation response to low doses of KLH ([1]; Balb/c, 0.2-2 μg KLH): increase in f without a change in PLN cellularity
proliferation response to higher doses of KLH ([1]; Balb/c, 5-25 μg KLH or with incomplete Freund's adjuvant): f reached a plateau
increase of PLN cellularity ([1]; Balb/c, KLH doses that increased cellularity): 2- to 3 fold
antigen dose at which cellularity was maximal ([1]; Balb/c, KLH in PBS, day 7): around 25 μg
antigen dose at which f was maximally increased ([1]; Balb/c, KLH, as little as): 600 ng
CD4+ T cell f ([1]; Balb/c, KLH-immunized, day 7, other attempts, vs. 7.5%±1.3% without KLH, p=0.017): 11.3%±2.1
proliferating cells as share of cells in the PLN ([1]; Balb/c, any KLH dose, day 7): ≤ 20%
f in total PLN cells after immunization ([1]; Balb/c, footpad immunization, day 7): elevated to a dose-independent plateau; also recorded: significant; also recorded: increased f
f in PLN B cells after immunization ([1]; Balb/c, sorted B cells, day 7): pronounced increase; also recorded: Significant KLH effect; also recorded: significantly increased
f in CD4+ T cells after immunization ([1]; Balb/c, sorted CD4+ T cells, day 7): smaller increase
f in CD8+ T cells after immunization ([1]; Balb/c, sorted CD8+ T cells, day 7): not in CD8^+ T cells
f in total T cells after immunization ([1]; Balb/c, sorted T cells, day 7): smaller increase; also recorded: Significant KLH effect
f in sorted B cells and total T cells ([2]; 200 μg KLH, day 7): Neither B cells nor T cells showed a substantial increase
f in PLN cells after KLH immunization, day 7 ([2]; 2-200 μg KLH, day 7): no significant increase; also recorded: lower
cellularity in PLN ([2]; 7 days after KLH immunization): dose-dependent
f in PLN cells, time course ([2]; KLH, day 4): transient increase

[2H]O[2H] [^2H2O]
toxicity of maintained body water enrichment [3]: without any evidence of toxicity

CC(=O)O[C@H]1C(=O)[C@@]2(C)[C@H]([C@H](OC(=O)c3ccccc3)[C@]3(O)C[C@H](OC(=O)[C@H](O)[C@@H](NC(=O)c4ccccc4)c4ccccc4)C(C)=C1C3(C)C)[C@]1(OC(C)=O)CO[C@@H]1C[C@@H]2O [paclitaxel]
PLN cellularity under drug treatment [1, 5]: reduced
f (clonal expansion) of PLN cells under drug treatment ([1]; stimulation not specified, Tax 10 mg/kg/d i.p., Dex 0.3 mg/kg/d p.o., day 7): did not affect f
f of xenografted human tumor cells in mice [4]: strong inhibition
